Test results from patent publication US6420353B1, “Use of 7 α-substituted steroid to treat neuropsychiatric, immune or endocrine disorders” (BTG International Limited, priority 1996, dated 2002).
Like-named read-outs stand apart in the source and are kept apart here.

How the values were obtained:
Cyp7b [1] = biological target: T1, Cyp7b (Mus musculus, UniProt Q60991); assay: Catalytic activity of Cyp7b expressed in mammalian cell lines (NADPH-dependent conversion, TLC)
T1 sequence (Q60991 1-507): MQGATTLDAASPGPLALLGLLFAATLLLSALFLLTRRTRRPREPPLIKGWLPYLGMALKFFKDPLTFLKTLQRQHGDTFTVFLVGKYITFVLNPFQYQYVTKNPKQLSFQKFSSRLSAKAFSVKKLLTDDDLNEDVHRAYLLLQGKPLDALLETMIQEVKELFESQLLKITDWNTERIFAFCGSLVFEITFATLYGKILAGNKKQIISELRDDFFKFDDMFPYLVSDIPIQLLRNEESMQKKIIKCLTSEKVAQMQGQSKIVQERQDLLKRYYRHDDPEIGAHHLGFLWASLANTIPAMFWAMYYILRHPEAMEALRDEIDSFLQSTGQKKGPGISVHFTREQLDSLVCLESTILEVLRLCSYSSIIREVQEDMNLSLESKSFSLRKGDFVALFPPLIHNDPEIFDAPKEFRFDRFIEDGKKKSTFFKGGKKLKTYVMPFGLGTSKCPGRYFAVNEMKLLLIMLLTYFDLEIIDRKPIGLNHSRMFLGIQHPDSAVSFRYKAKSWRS
Description: To examine the catalytic activity of the enzyme Cyp7b CDNAs were expressed in mammalian cell lines.

GR = biological target: T2, GR (Homo sapiens, UniProt P04150); assay: Cis-trans co-transfection assay (MMTV-LUC / pRShGR) in CHO cells; format: cell-based; details: in presence of a GR activating concentration of corticosterone, FIG. 4
T2 construct: expressed in transfected cells; host or cells: CHO cells, calcium phosphate transfection
T2 sequence (P04150 1-777): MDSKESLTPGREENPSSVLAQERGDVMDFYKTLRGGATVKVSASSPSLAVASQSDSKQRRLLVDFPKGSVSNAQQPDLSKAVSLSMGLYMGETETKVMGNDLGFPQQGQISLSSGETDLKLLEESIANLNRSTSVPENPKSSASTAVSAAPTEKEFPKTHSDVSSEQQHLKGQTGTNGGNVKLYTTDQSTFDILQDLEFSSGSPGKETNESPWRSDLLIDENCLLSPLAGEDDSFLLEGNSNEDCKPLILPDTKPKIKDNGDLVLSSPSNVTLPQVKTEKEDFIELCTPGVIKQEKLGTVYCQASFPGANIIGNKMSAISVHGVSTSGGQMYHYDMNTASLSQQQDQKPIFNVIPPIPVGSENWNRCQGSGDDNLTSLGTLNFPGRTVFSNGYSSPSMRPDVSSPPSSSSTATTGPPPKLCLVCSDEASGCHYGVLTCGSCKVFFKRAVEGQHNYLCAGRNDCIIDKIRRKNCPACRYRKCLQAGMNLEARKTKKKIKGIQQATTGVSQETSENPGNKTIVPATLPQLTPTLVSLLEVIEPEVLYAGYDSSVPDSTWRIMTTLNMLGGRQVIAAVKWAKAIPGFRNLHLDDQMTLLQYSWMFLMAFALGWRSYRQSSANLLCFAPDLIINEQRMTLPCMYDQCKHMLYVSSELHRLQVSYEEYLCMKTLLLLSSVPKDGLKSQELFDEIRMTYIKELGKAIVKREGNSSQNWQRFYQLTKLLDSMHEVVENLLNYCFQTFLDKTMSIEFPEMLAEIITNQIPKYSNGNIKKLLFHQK
Protocol: Chinese hamster ovary (CHO) cells were maintained and transfected in Dulbecco's modification of Eagle's medium (DMEM) supplemented with 15% foetal bovine serum, 100 IU/ml penicillin, 100 μg/ml streptomycin and […] L-glutamine (all Gibco BRL, Paisley, UK).
24 hours prior to transfection CHO cells were plated at a density of 3×10^5/60 mm dish (Costar UK). Cells were transfected by the clacium phosphate method. Briefly, 5 μg of MMTV-LUC and 1 μg of pRShGR or 5 μg of pSV2 as a control for transfection efficiency were made up to a total of 10 μg/plate of DNA with pGEM3. 30 μl of 2.5M CaCl2 was diluted ten-fold with sterile water and 300 μl was added to the DNA. […]
The following day the cells were washed in PBS, lysed with 0.3 ml of lysis buffer (25 mM Tris-phosphate pH 7.8, 2 mM DTT, 1% Triton X-100 and 10% glycerol), scraped, centrifuged and the supernatant assayed in duplicate in a Berthold luminometer in a total volume of 250 μl, comprising 40 μl of cell extract, 5 μl of 30 mM ATP, 100 μl of assay buffer (20 mM tricine, […] (MgCO3)4.Mg(OH)2.%H2O, 2.67 mM MgSO4, Q1 mM EDTA, 33.3 mM DTT, 0.2 mg/ml coenzyme A) and 105 μl luciferin (Promega UK) injected to initiate the reaction. Light emission was measured over 10 seconds and relative light units/microgram of protein was calculated.

Cyp7b [2] = biological target: T1, Cyp7b
Cyp7b [3] = biological target: T1, Cyp7b; remark: listed apart in the source
[4] = substrate: C[C@]12CC[C@H](O)CC1=CC[C@@H]1[C@@H]2CC[C@]2(C)C(=O)CC[C@@H]12; assay: purified protein, by the assay type; details: other: cell extracts, NADPH-dependent conversion
[5] = relative to DHEA and pregnenolone
[6] = cell extracts, NADPH-dependent conversion

C[C@]12CC[C@H](O)C[C@@H]1CC[C@@H]1[C@@H]2CC[C@]2(C)[C@@H](O)CC[C@@H]12 [5α-androstane-3β, 17β-diol]
activity of the expressed enzyme against the steroid as substrate (Cyp7b [1]; [5]): less active

C[C@]12CC[C@H](O)CC1=C[C@@H](O)[C@@H]1[C@@H]2CC[C@]2(C)C(=O)CC[C@@H]12 [7HD, 7α-hydroxydehydroepi-androsterone]
antagonism of corticosterone effect in activating GR-mediated transcription (fold induction of luciferase) (GR): acts as an antagonist

C[C@H](CCCC(C)(C)O)[C@H]1CC[C@H]2[C@@H]3CC=C4C[C@@H](O)CC[C@]4(C)[C@H]3CC[C@]12C [25-hydroxycholesterol]
conversion of labelled steroid by Cyp7b microsomes to a lower mobility form on TLC (Cyp7b [2]): converted by the enzymes
activity of the expressed enzyme against the steroid as substrate (Cyp7b [1]): less active

C[C@]12CC[C@H](O)CC1=CC[C@@H]1[C@@H]2CC[C@]2(C)C(=O)CC[C@@H]12 [DHEA, dehydroepiandrosterone]
conversion of labelled steroid by Cyp7b microsomes to a lower mobility form on TLC (Cyp7b [2]): converted
antagonism of corticosterone effect in activating GR-mediated transcription (fold induction of luciferase) (GR): not

C[C@]12C[C@H](O)[C@H]3[C@@H](CCC4=CC(=O)CC[C@@]43C)[C@@H]1CC[C@@H]2C(=O)CO [corticosterone]
conversion of labelled steroid by Cyp7b microsomes to a lower mobility form on TLC (Cyp7b [2]): at best inefficiently metabolised, if at all
activity of the expressed enzyme against the steroid as substrate (Cyp7b [1]): low to undetectable activity

C[C@]12CCC(=O)C=C1CC[C@@H]1[C@@H]2[C@@H](O)C[C@@]2(C)[C@H]1CC[C@]2(O)C(=O)CO [cortisol]
conversion of labelled steroid by Cyp7b microsomes to a lower mobility form on TLC (Cyp7b [2]): at best inefficiently metabolised, if at all

C[C@]12CC[C@@H]3c4ccc(O)cc4CC[C@H]3[C@@H]1CC[C@@H]2O [estradiol, 17β-estradiol]
conversion of labelled steroid by Cyp7b microsomes to a lower mobility form on TLC (Cyp7b [2]): converted by the enzymes
activity of the expressed enzyme against the steroid as substrate (Cyp7b [1]): less active

CC(=O)[C@H]1CC[C@H]2[C@@H]3CC=C4C[C@@H](O)CC[C@]4(C)[C@H]3CC[C@]12C [pregnenolone]
conversion of labelled steroid by Cyp7b microsomes to a lower mobility form on TLC (Cyp7b [2]): converted by the enzymes
release of 3H into the aqueous phase (Cyp7b [3]): efficiently released
Km (Cyp7b [1]; [6]): 3.6 µM
Vmax (Cyp7b [1]; [6]): 34 pmol/min/mg

CC(=O)[C@H]1CC[C@H]2[C@@H]3CCC4=CC(=O)CC[C@]4(C)[C@H]3CC[C@]12C [progesterone]
conversion of labelled steroid by Cyp7b microsomes to a lower mobility form on TLC (Cyp7b [2]): at best inefficiently metabolised, if at all

C[C@]12CC[C@H]3[C@@H](CCC4=CC(=O)CC[C@@]43C)[C@@H]1CC[C@@H]2O [testosterone]
conversion of labelled steroid by Cyp7b microsomes to a lower mobility form on TLC (Cyp7b [2]): at best inefficiently metabolised, if at all
activity of the expressed enzyme against the steroid as substrate (Cyp7b [1]; [5]): low to undetectable activity

B1: Cyp7b (Mus musculus) (protein)
chain: T1 sequence (Q60991 1-507)
Km [4]: 13.3 µM
Vmax [4]: 288 pmol/min/mg
